Results reported in patent US10816552B2 (The Governing Council of the University of Toronto, priority 2014, dated 2020).

How the values were obtained:
[1] = 1H NMR stability in d-DMSO under dry ambient atmosphere, 24 h; assay type: physicochemical; conditions: for degradation over 24 hours (1H NMR): 24 hr incubation
Method: FIGS. 2A-C show the results of ^1H NMR stability experiments for exemplary compounds 1-11. (A) Compounds 1, 2 and 7. (B) Compounds 3, 4, 5 and 6. (C) Compounds 8, 9, 10 and 11. The organotellurium compounds (˜150 μM) were dissolved in d-DMSO with 1,3,5-trioxane, the secondary internal standard. The compounds were kept in clear glass 20 mL vials. The vials were kept in a moisture free environment for 24 hours with continuous supply of ambient atmosphere dried using a series of bubblers containing phosphoric acid, potassium hydroxide and calcium sulfate. Aliquots were analyzed by ^1H NMR and the organotellurium signals and the d5-H-DMSO peaks were integrated. The ratio between the DMSO and the organotellurium protons at time 0 were taken and normalized to generate a degradation plot. Experimental error was calculated by generating triplicate integration data from each individual preliminary NMR data. This error takes into consideration of integration bias and instrument fluctuations.
The relative chemical stability of the methyl telluroethers (1-4) were quantified using ^1H NMR by integration of the CH3—Te signals with respect to a residual DMSO-d5 internal standard. Samples were prepared in a solution of DMSO-d6 and placed under a slow continuous stream of dry ambient atmosphere in a clear glass desiccator. This setup allowed the compound's stability to be monitored without interference from atmospheric water (FIG. 2).

Solubility observations = assay type: physicochemical
Jurkat cells = assay: Metabolic toxicity assay (WST-1) in Jurkat cells; assay type: cell-based; conditions: for LD50 / LD50 (metabolic toxicity): Jurkat cells, 24 hour incubation, WST-1
Method: FIGS. 7A, B and C show a) and b) the cell proliferation rate of HCT116 cells as a function of time in the presence of various concentrations of the exemplary compound, Telox-2 (confluency analysis); and c) the metabolic toxicity of the exemplary compound, Telox-2, in Jurkat cells as measured by reduction of WST-1. Cells were incubated with Telox-2 for 24 hours prior to a 30 minute exposure to WST-1.
A 96 well clear fluorometer plate was loaded with 200 μL of Jurkat cells at a culture density of 1×10^6 cells per mL. To each well was added an appropriate amount of a stock solution of Telox/Telox2 in sterile DMSO to reach a desired concentration of Telox/Telox2 (1-1000 micromole). The concentration of DMSO was 1% in all wells. Cells were allowed to incubate for 24 h at 37° C. under normal atmosphere, after which 20 μL of a commercially available solution of WST-1 in PBS (Roche Diagnostics, product #05015944001) was added to each well (gentle pipetting evenly distributed the reagent throughout the well). Cells were allowed to incubate for a further 0.5 h at 37° C. under normal atmosphere, followed by subsequent measurement of the absorbance of each well at 450 nm using a TECAN Safire 2 plate reader. Data was background corrected vs. wells that contained cell growth media (without cells), an appropriate concentration of Telox2, a final concentration of DMSO=1%, and WST-1. Background correction wells were incubated in the same manner as described for cell-positive wells.
To investigate the organotellurium compounds of study as potential probe moieties for MC, the metabolic toxicity of the compounds was evaluated. Organotellurium compounds are often described as toxic, with aryl telluroethers showing cellular toxicity below 100 μM across a range of cell lines under different assay conditions.^9-11,38,39 The toxicity of compounds 8-11 was investigated in a commonly used Jurkat cell line after a 24 hour incubation using the metabolic probe WST-1 (Roche Diagnostics, Laval, Quebec) as per manufacturer's instructions. As compounds 8, 9 and 10 are expected to show degradation over the time frame of the toxicity assay, based on the NMR stability studies, these experiments show the relative toxicity of the compounds and their resulting degradation products (Table 2). […] The LD50 values of the exemplary organotellurium compounds of the present application provide promise for their use as activity based MC probes since the general MC experiment can be achieved at concentrations of ˜100 μM.^5

[2] = NMR degradation in 50/50 d-DMSO/PBS buffer, air and ambient light; assay type: physicochemical; conditions: air, ambient lighting, room temperature
Source text: The ^19F NMR of compound 10 and ^1H NMR of compound 11 were taken at shown time points. Compound 10 used trifluoroacetic acid as the internal standard and compound 11 used d5-DMSO.
To further validate these compounds as potential MC mass tags, the degradation was also studied in a buffered aqueous solution by dissolving the compounds in a 50/50 solution of d-DMSO/PBS buffer. The compounds were kept in an environment exposed to air and ambient lighting at room temperature. ^19F NMR was used to study compound 10 using a trifluoroacetic acid internal standard while ^1H NMR was used to study the degradation compound 11 using the d5-DMSO internal standard. […] However, under the same conditions the tellurophene 11 was stable.

HCT116 cells = assay: Mass cytometry hypoxia labelling (130Te signal); assay type: cell-based
Source text: FIGS. 4A-E show a schematic representation and density maps and plots. FIG. 4A is a schematic representation of Telox/Telox2 cell labelling for analysis via mass cytometry on a second-generation CyTOF instrument. FIG. 4b) is a density map of signal event length vs. ^130Te signal (arbitrary units). FIG. 4c) is a density plot output from the top-right gate in b) of ^193Ir signal (arbitrary units) vs. ^103Rh signal (arbitrary units). More than 93% of detected events fall in the square gate. FIG. 4d) is a density plot output from the bottom-left gate in b) of ^193Ir signal (arbitrary units) vs. ^103Rh signal (arbitrary units). More than 89% of detected events fall in the square gate. FIG. 4e) is a population histograms of cell ^130Te content (arbitrary units). Oxygen concentrations are listed as numerical percentages, P=Pimonidazole (100 μM). Blue and red histograms are Pimonidazole-negative controls. Orange and green histograms are Pimonidazole- positive competition experiments. Note: warmer colors in density plots indicate higher cell population density.
FIGS. 8A and B show a) the absolute ^130Te signal as a function of concentration as determined by mass cytometry analysis of HCT116 cells incubated with the exemplary compound, Telox-2, for 3 hours in either near-anoxic (˜0% O2), hypoxic (˜1% O2) or normoxic (21% O2) atmosphere; and b) the signal-to-noise (fold-change) representation of the data presented in part a.
FIGS. 9A-D show a) Absolute ^130Te signal as a function of time as determined by mass cytometry analysis of HCT116 cells incubated with 10 μM of the exemplary compound,Telox-2 (constant exposure), in either near-anoxic (˜0% O2), hypoxic (˜1% O2) or normoxic (21% O2) atmosphere; b) the signal-to-noise (fold-change) representation of the data presented in part a; and c) the absolute ^130Te signal as a function of time as determined by mass cytometry analysis of HCT116 cells incubated with 10 μM Telox-2 for 3 hours followed by replacement of Telox-2-containing media with fresh media in either near-anoxic (˜0% O2), hypoxic (˜1% O2) or normoxic (21% O2) atmosphere; and d) the signal-to-noise (fold-change) representation of the data presented in part c.
HCT116 (500,000) cells were seeded in 60 mm plastic petri dishes (Corning Inc., NY) and incubated for 24 h at 37° C., 21% O2/5% CO2. The cells were transferred to hypoxia chambers (H35/H85 hypoxia workstation, Don Whitley Scientific) maintained at 1%/0.2% or <0.02% O2 for 3 h. Hypoxia experiments (<0.02% O2) were performed by seeding the cells in 60 mm glass plates (Corning Inc., NY).
HCT 116 cells (see sections i and ii) were incubated in media containing Telox or Telox2 (100 μM, added as a neat solution in sterile DMSO; final [DMSO]=0.1%) for 3 hours under atmosphere containing an appropriate concentration of O2. Following incubation, the media was removed, cells were washed with sterile PBS, and then separated from the incubation plate via trypsinization (37° C., 10 min) and gentle scraping. The cell suspension was pelleted and resuspended in PBS containing β-ME (1.0 mL, 100 mM). Cells were pelleted, resuspended in PBS (900 μL, no β-ME), and fixed with formaldehyde (100 μL, 37% solution) for 25 minutes. Following fixation, cells were pelleted, resuspended in PBS containing β-ME (1.0 mL, 100 mM), and pelleted once again. Cells were then resuspended in PBS ([…], no β-ME) and incubated with either the Ir-containing nucleic acid intercalator (hypoxic cells) or the Rh containing nucleic acid intercalator (normoxic cells) (10 μL, 100 μM solution in sterile PBS) for 20 minutes. Cells were then pelleted and resuspended in PBS (1.0 mL, no β-ME) twice. Cell pellets were then resuspended in PBS containing ^151/153EU beads (1/10 dilution of CyTOF® calibration beads, DVS Sciences, 1.0-2.5 mL depending on pellet size). The two cells samples were then combined (250 μL of each) and 250 μL of the resultant sample was injected onto a second-generation CyTOF® instrument for MC analysis. […]

[3] = Stability of the Telox telluroether (summary statement); assay type: physicochemical

With `C[Te]CCCO` [Compound 2, 3-methyltellanyl-1-propanol] as the molecule, how does the “degradation over 24 hours (1H NMR)” value [1] read?
Its value is “approximately 75%”.

With `COC(=O)CC[Te]C` [Compound 3, methyl 3-methyltellanyl-propionate] as the molecule, how does the “degradation over 24 hours (1H NMR)” value [1] read?
The value was about 85%.

With `COC(=O)CCC[Te]C` [Compound 4, methyl 4-methyltellanyl-butanoate] as the molecule, how does the “degradation over 24 hours (1H NMR)” value [1] read?
The value was “approximately 15%”.

With `COC(=O)CCC[Te]C(F)(F)F` [Compound 5, methyl 4-((trifluoromethyl)tellanyl)butanoate] as the molecule, how does the “degradation over 24 hr incubation (1H NMR), in words” value (“degradation over 24 hr incubation” for short) [1] read?
The value was “no degradation was observed”.

Which “degradation over 24 hr incubation” value [1] does the source give for `O=C(O)CCc1ccc[te]1` [Compound 6] here?
The value was “degraded insignificantly”.

Which “degradation over 24 hr incubation” value [1] does the source give for `OCCc1ccc[te]1` [Compound 7, 2-(tellurophen-2-yl)ethan-ol] here?
Its value is “degraded insignificantly”.

With `C[Te]CCCOC(=O)NCc1ccccc1` [Compound 8] as the molecule, how does the “solubility, in words” value (Solubility observations) read?
The value was “lack of solubility”.

And the LD50 (Jurkat cells)?
The LD50 was 610 ± 290 µM.

What about the “LD50 (metabolic toxicity)” value (Jurkat cells) of the same molecule?
Its value is 610 µM.

Which LD50 (Jurkat cells) does the source give for `C[Te]CCCC(=O)NCc1ccccc1` [Compound 9, N-benzyl-4-(methyltellanyl)butanamide] here?
Its LD50 is 180 ± 60 µM.

With `O=C(CCC[Te]C(F)(F)F)NCc1ccccc1` [Compound 10, N-benzyl-4-((trifluoromethyl)tellanyl)butamide] as the molecule, how does the “degradation over 24 hr incubation” value [1] read?
Its value is “stable”.

And the LD50 (Jurkat cells)?
The LD50 was 130 ± 20 µM.

What about the “degradation after 24 hours in d-DMSO/PBS” value ([2]; 19F NMR) of the same molecule?
The value was 60%.

Which results are given for `O=C(CCc1ccc[te]1)NCc1ccccc1` [Compound 11, N-benzyl-3-(tellurophen-2-yl)propanamide]?
degradation over 24 hr incubation (1H NMR), in words [1]: stable; LD50 (Jurkat cells): 280 ± 30 µM; LD50 (metabolic toxicity) (Jurkat cells): 280 µM; stability in d-DMSO/PBS, in words ([2]; 1H NMR, 24 hours): stable

With `C[Te]CCCOC(=O)NCCNC(=O)Cn1ccnc1[N+](=O)[O-]` [Telox] as the molecule, how does the “detected events in the square gate, top-right (130Te) gate, 193Ir vs 103Rh” value (HCT116 cells; FIG. 4c) read?
Its value is “More than 93%”.

What about the “detected events in the square gate, bottom-left (130Te) gate, 193Ir vs 103Rh” value (HCT116 cells; FIG. 4d) of the same molecule?
The value was “More than 89%”.

And the “stability of telluroether functionality, in words” value [3]?
Its value is “moderate stability”.

And the “metabolic LD50, in words” value (Jurkat cells; Telox, summary statement)?
Its value is “close to the required assay concentration”.
